This note sets out measurements from patent US20150329821A1, “METHODS OF DIFFERENTIATING STEM CELLS INTO ONE OR MORE CELL LINEAGES” (AGENCY FOR SCIENCE, TECHNOLOGY AND RESEARCH, priority 2012, published 2015).

The subject of the experiment is hESC. Kind of experiment: qPCR of DE vs. mesoderm emergence from primitive streak under signaling perturbations. The settings on record: for downregulation of MESP1: neutralizing endogenous BMP on days 2-3, PS to DE, 2 hESC lines; for mesoderm formation from PS: inhibiting endogenous Wnt on days 2-3. The experiment is classed as cell-based, human. How it is done:
RNA was harvested from adherent cells grown in individual wells of a 12-well plate by the addition of 350 μL of RLT Buffer for several minutes. RNA could be indefinitely frozen at −80° C. or could be directly extracted. RNA extraction was conducted with the RNeasy Micro Kit (Qiagen) generally as per the manufacturer's recommendations with an intermediate 1 hour on-column DNase digestion to eliminate residual genomic DNA, and RNA was finally eluted from the column in 30 μL H20. After assessment of total RNA concentration, generally 100-500 ng of total RNA was used for reverse transcription (Superscript Reverse Transcriptase, Invitrogen) as per the manufacturer's instructions. Finally, cDNA was diluted 1:30 in H2O and was used for qPCR in 384-well high-throughput format. For each individual qPCR reaction per′ well (10 μL), 5 μL of 2×SYBR Green Master Mix (Applied Biosystems) was used and combined with 0.4 μL of combined forward and reverse primer mix (at 10 μM of forward+reverse primers in the combined primer mix). qPCR was conducted for 40 cycles at Tm=60° C., and a dissociation curve was generated at the end of the reaction to ensure only one product was specifically amplified per primer pair. qPCR analysis was conducted by the ddCt method: for each cDNA sample, the expression of experimental genes was internally normalized to the expression of a human housekeeping gene (Pbgd) for that same cDNA sample, and afterwards, expression of experimental genes could be determined between different cDNA samples. For all differentiated populations, expression of experimental genes was compared to undifferentiated hESCs plated for the same experimental set to ensure that any perceived increase or decrease of gene expression was significant relative to the ab initio expression of that gene in undifferentiated hESCs. Thus, for all qPCR data both in matrices […] and histograms (FIG. 39-65) all gene expression is normalized such that the level of gene expression (e.g., for SOX17) in hESCs=1. For each experiment, at least two distinct wells per, condition were harvested, and for each well, 2 or 3 technical replicates were performed for each gene whose expression was analyzed by qPCR.
To deduce the developmental signaling logic underlying cell-fate bifurcations, signaling-perturbation matrices (FIG. 1-23) were generated to visually represent qPCR data of developmental gene expression (rows) in response to various signaling-perturbations (columns). Signaling-perturbation matrices were generated using GenePattern's HeatMapViewer module (http://genepattern.broadinstitute.org), using as input data matrices of signaling-perturbation qPCR responses that were normalized to levels of developmental gene expression in undifferentiated hESC as described above. In HeatMapViewer, gene expression values are linearly transformed into colors (as indicated by the color legend below each matrix) in which no color represents low gene expression, stronger color represents higher gene expression and the strongest shade of color is equivalent to the highest level of the gene that was expressed in all signaling-perturbations tested in that matrix.
Background: In qPCR the cycle at which signal appears reflects the starting amount.

Regarding `Cl.c1ccc2c(-c3cnn4cc(-c5ccc(N6CCNCC6)cc5)cnc34)ccnc2c1` [DM3189/LDN-193189, 4-(6-(4-(piperazin-1-yl)phenyl)pyrazolo[1,5-a]pyrimidin-3-yl)quinoline hydrochloride], the “downregulation of MESP1” value was about 3000 fold. As to `Cc1ccc2nc(NC(=O)CSc3nc4c(c(=O)n3-c3ccccc3)SCC4)sc2c1` [IWP2, N-(6-Methyl-2-benzothiazolyl)-2-[(3,4,6,7-tetrahydro-4-oxo-3-phenylthieno[3,2-d]pyrimidin-2-yl)thio]-acetamide], the “mesoderm formation from PS” value is given as “blocked mesoderm formation”.

For `O=c1[nH]c(-c2ccc(C(F)(F)F)cc2)nc2c1CSCC2` [XAV939, 3,5,7,8-Tetrahydro-2-[4-(trifluoromethyl)phenyl]-4H-thiopyrano[4,3-d]pyrimidin-4-one], the “mesoderm formation from PS” value was “blocked mesoderm formation”.

B1: noggin: inhibitor of BMP signaling (protein, UniProt Q13253 28-232, looked up)
Noggin: QHYLHIRPAPSDNLPLVDLIEHPDPIFDPKEKDLNETLLRSLLGGHYDPGFMATSPPEDRPGGGGGAAGGAEDLAELDQLLRQRPSGAMPSEIKGLEFSEGLAQGKKQRLSKKLRRKLQMWLWSQTFCPVLYAWNDLGSRFWPRYVKVGSCFSKRSCSVPEGMVCKPSKSVHLTVLRWRCQRRGGQRCGWIPIQYPIISECKCSC
For the molecule B1, the “downregulation of MESP1” value is reported as about 3000 fold.

B2: Dkk1: inhibitor of Wnt signaling (protein, UniProt O94907 32-266, looked up)
Dickkopf-related protein 1: TLNSVLNSNAIKNLPPPLGGAAGHPGSAVSAAPGILYPGGNKYQTIDNYQPYPCAEDEECGTDEYCASPTRGGDAGVQICLACRKRRKRCMRHAMCCPGNYCKNGICVSSDQNHFRGEIEETITESFGNDHSTLDGYSRRTTLSSKMYHTKGQEGSVCLRSSDCASGLCCARHFWSKICKPVLKEGQVCTKHRRKGSHGLEIFQRCYCGEGLSCRIQKDHHQASNSSRLHTCQRH
Regarding B2, the “mesoderm formation from PS” value is “blocked mesoderm formation”.
